Assay results from patent US7504423B2, “α-amino acid derivatives and use thereof as medicines” (Mitsubishi Tanabe Pharma Corporation, priority 2003, dated 2009).

Tests used:
Human plasma DPP-IV = target: T1, Human plasma DPP-IV (Homo sapiens, UniProt P27487); test: Plasma DPP-IV inhibitory activity (fluorescence assay, Gly-Pro-MCA substrate), human plasma; format: biochemical; details: human plasma (10-fold diluted), room temperature, 60 min
T1 construct: Human plasma DPP-IV; from tissue; host or cells: human plasma
Procedure: (§1) (Plasma DPP-IV Inhibitory Activity)
(§2) The plasma DPP-IV inhibitory activity of human and rat was measured by the fluorescence assay method. Using Gly-Pro-MCA (Peptide Institute Inc.) as a DPP-IV specific fluorescent substrate, reaction solutions having the following compositions and containing test substances having various concentrations were incubated at room temperature for 60 min and the measured (SPECTRA FLUOR, TECAN) fluorescent intensity (Excitation 360 nm/Emission 465 nm) was taken as the DPP-IV activity.
(§3) As a buffer, 0.003% Brij-35-containing phosphate buffer (PBS, Sigma-Aldrich Co.) was used.
(§4) A reaction solution free of the test substance was used as a control.
(§5) The inhibitory rate of the test substance relative to the reaction of the control was calculated, and IC50 values were determined by logistic analysis. The IC50 values of the plasma DPP-IV inhibitory activity of the present invention as determined by the above method are shown in the following table.

Rat plasma DPP-IV = target: T2, Rat plasma DPP-IV (Rattus norvegicus, UniProt P14740); test: Plasma DPP-IV inhibitory activity (fluorescence assay, Gly-Pro-MCA substrate), rat plasma; format: biochemical; details: rat plasma (10-fold diluted), room temperature, 60 min
T2 construct: Rat plasma DPP-IV; from tissue; host or cells: rat plasma
Procedure: as §1, §2, §3, §4, §5

T1 sequence (P27487 39-766 limits assumed): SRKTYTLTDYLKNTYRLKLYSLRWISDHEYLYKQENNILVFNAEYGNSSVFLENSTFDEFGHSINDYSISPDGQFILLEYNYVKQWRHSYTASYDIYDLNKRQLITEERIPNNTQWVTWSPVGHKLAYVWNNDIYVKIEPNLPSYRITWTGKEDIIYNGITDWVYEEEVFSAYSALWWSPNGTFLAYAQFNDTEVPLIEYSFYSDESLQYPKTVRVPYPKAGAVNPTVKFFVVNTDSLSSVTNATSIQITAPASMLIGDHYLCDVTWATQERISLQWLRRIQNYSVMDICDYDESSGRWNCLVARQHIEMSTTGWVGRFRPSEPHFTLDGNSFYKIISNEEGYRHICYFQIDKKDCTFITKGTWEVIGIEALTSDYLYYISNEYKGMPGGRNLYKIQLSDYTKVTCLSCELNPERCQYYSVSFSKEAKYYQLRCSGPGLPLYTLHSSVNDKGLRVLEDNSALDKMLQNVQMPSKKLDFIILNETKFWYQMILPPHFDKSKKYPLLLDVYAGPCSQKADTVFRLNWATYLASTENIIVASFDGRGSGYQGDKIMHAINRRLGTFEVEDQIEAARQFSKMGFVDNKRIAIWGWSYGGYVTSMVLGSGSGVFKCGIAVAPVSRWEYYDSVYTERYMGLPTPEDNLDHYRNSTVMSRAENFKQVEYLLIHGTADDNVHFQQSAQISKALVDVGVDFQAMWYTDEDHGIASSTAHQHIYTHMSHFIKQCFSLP
T2 sequence (P14740 38-767 limits assumed): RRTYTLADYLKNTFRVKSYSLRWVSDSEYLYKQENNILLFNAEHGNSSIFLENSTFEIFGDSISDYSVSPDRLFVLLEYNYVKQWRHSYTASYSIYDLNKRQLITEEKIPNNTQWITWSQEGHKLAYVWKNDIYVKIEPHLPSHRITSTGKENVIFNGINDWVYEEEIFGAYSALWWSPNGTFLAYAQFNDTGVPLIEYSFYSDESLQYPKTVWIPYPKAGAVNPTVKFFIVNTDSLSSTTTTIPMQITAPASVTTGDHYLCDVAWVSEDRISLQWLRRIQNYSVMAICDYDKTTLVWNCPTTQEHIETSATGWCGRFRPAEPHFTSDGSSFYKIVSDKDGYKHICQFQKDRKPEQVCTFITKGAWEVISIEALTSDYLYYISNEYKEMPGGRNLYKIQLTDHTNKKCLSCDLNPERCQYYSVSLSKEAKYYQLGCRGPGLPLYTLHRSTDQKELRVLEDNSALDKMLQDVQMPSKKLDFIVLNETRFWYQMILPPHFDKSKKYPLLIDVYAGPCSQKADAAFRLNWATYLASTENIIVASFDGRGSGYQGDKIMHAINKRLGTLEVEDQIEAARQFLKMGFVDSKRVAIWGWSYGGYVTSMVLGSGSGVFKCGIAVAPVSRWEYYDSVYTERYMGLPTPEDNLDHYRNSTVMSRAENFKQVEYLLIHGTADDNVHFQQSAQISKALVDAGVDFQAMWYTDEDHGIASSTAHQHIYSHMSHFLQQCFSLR

Row | SMILES | IC50 (Human plasma DPP-IV) [nM] | IC50 (Rat plasma DPP-IV) [nM]
1 | N#Cc1ccc(N2CCN([C@H]3CC[C@@H]([C@H](N)C(=O)N4CCSC4)CC3)CC2)nc1 [Example 2, 3-((S)-2-amino-2-{cis-4-[4-(5-cyano-2-pyridyl)-1-piperazinyl]-1-cyclohexyl}acetyl)-1,3-thiazolidine] | 1.6 | 1.4
2 | N[C@H](C(=O)N1CCSC1)[C@H]1CC[C@@H](N2CCN(c3nc4ccccc4s3)CC2)CC1 [Example 14, 3-((S)-2-amino-2-{cis-4-[4-(2-benzothiazolyl)-1-piperazinyl]-1-cyclohexyl}acetyl)-1,3-thiazolidine] | 2.1 | 1.4
